For one assay, the system named is Jurkat cells. Description: Jurkat cell adhesion system (adhesion to immobilized human fibronectin, PMA-stimulated). The format is cell-based. The note with it: concentration inhibiting by 50% the PMA-stimulated increase in the number of adhered Jurkat cells on human fibronectin, 45-60 minutes, 37° C. On the procedure:
Evaluation of Compounds in Jurkat Cell Adhesion System
<Immobilization of Human Fibronectin in 96-Well Plate>
Human fibronectin (Becton Dickinson Biosciences) was diluted with phosphate-buffered saline (hereinafter abbreviated as PBS; Sigma) to 0.1-0.01 μg/ml, and the diluted solution was added to a 96-well plate (Becton Dickinson) at 50 μl/well, and allowed to stand overnight at 4° C. On the following day, the supernatant was removed from the plate, and then PBS containing 1% bovine serum albumin (hereinafter abbreviated as BSA; Sigma) was added thereto at 100 μl/well and incubation was performed at 37° C. for 2 hours in a CO2 incubator (Hirasawa).
The supernatant was removed from each plate and Jurkat cells suspended in RPMI-1640 (Sigma) containing 1 mg/ml BSA were added at 80 μl/well for 2.5×10^5 cells/well. The compound diluted to different concentrations with RPMI-1640 containing 1 mg/ml BSA was immediately added at 10 μl/well, and then 100 nM phorbol myristate acetate (hereinafter abbreviated as PMA; Sigma) in RPMI-1640 containing 1 mg/ml BSA was added at 10 μl/well and the plate was incubated in a CO2 incubator at 37° C. for 45-60 minutes. The supernatant was removed from the plate and each well was washed several times with 100 μl/well of RPMI-1640, after which 50 mM citrate buffer (pH 5.0) containing 3.75 mM p-nitrophenol-N-acetyl-β-D-glucosaminide (Sigma) and 0.25% Triton X-100 (Sigma) were added at 60 μl/well, and the mixture was placed in a CO2 incubator and incubated at 37° C. for 45 minutes. After incubation, 50 mM glycine buffer (pH 10.4) containing 5 mM EDTA was added at 90 μl/well, and the absorbance at 405 nm was measured with an EL340 Automated Microplate Reader (BIO-TEK) to determine the adhered cell count. The concentration of each compound which inhibited the increase in the number of adhered cells by the PMA-stimulation by 50% was recorded as the IC50 (μM).

The subject of assay [1] is human peripheral blood neutrophils. Description: Human peripheral blood neutrophil adhesion system (adhesion to immobilized HUVEC, PMA-stimulated). The following applies: 0.75 h, concentration inhibiting by 50% the PMA-stimulated increase in the number of adhered BCECF-AM labeled neutrophils on HUVEC immobilized plate, 45 minutes, 37° C. The format is cell-based. As for the experimental part:
Evaluation of Compounds in Human Peripheral Blood Neutrophil Adhesion System
<Preparation of Human Peripheral Blood Neutrophils>
To a plastic centrifugation tube containing 100 units of heparin sodium (Shimizu Pharmaceutical) was added 25 ml of fresh blood sampled from a healthy human. After adding and mixing therewith 8 ml of physiological saline (Otsuka Pharmaceutical) containing 6% Dextran (Nacalai), the mixture was allowed to stand at room temperature for 45 minutes for sedimentation of the erythrocytes. The resultant supernatant was transferred to another plastic centrifugation tube and combined with an equivalent volume of phosphate-buffered saline (hereinafter abbreviated as PBS; Sigma), and then centrifuged at 1600 rpm for 7 minutes at room temperature. The obtained hematocyte fraction was suspended in 4 ml of PBS, and the suspension was superposed on 4 ml of Ficoll-Paque™ PLUS (Amersham Biosciences). The resultant bilayer liquid was centrifuged at 2000 rpm for 30 minutes at room temperature, after which the supernatant was removed and the precipitate was suspended in 10 ml of PBS and centrifuged at 1200 rpm for 7 minutes, and the supernatant was removed. The resulting precipitate was suspended in 0.5 ml of PBS again, and then 10 ml of distilled water (Otsuka Pharmaceutical) was added, 0.5 ml of an aqueous solution containing 3 M NaCl was immediately added to restore isotonicity, the mixture was centrifuged at 1200 rpm for 7 minutes, and the obtained precipitate was suspended in PBS containing 1 mg/ml bovine serum albumin (hereinafter abbreviated as BSA; Sigma) again and stored in ice until being used for the experiment.
<Fluorescent Labeling of Human Peripheral Blood Neutrophils>
The obtained neutrophils were suspended in PBS containing 1 mg/ml BSA at 2×10^7 cells/ml. BCECF-AM (Dojin) was added to a final concentration of 5 μM, and the mixture was incubated at 37° C. for 45 minutes. It was then rinsed twice with PBS containing 1 mg/ml BSA by centrifugation, suspended again in PBS containing 1 mg/ml BSA at 5×10^7 cells/ml, and stored in ice until use.
<Preparation of HUVEC Immobilized Plate>
Human umbilical vein endothelial cells (hereinafter abbreviated as HUVEC) were suspended in MCDB131 medium (Chlorella Industries) containing 10% fetal calf serum and 30 μg/ml endothelial cell growth supplement (Becton Dickinson Bioscience). The suspension was added at 7.5×10^3 cells/well to a 96-well plate (Iwaki) immobilized with type I collagen, and cultured for 3 days in a CO2 incubator (Hirasawa). Upon confirming confluency of the cells, the supernatant was discarded, the plate was rinsed twice with PBS, and then PBS containing 0.1% glutaraldehyde (Kanto Kagaku) was added at 100 μl/well and the HUVECs were immobilized for 5 minutes. The supernatant was discarded and the plate was washed twice with PBS, and then PBS was added at 100 μl/well and the mixture was stored at 4° C. until use.
To 6.5 ml of RPMI-1640 medium (Sigma) containing 1 mg/ml of BSA were added 0.5 ml of a suspension of BCECF-AM labeled neutrophils at 5×10^7/ml stored in ice, which was mixed, and the mixture was added at 80 μl/well to a HUVEC immobilized plate. To this plate were immediately added 10 μl/well of a solution of the compound diluted at different concentrations with RPMI-1640 containing 1 mg/ml BSA, and 10 μl/well of 100 nM phorbol myristate acetate (hereinafter abbreviated as PMA; Sigma) in RPMI-1640 containing 1 mg/ml BSA, and the mixture was incubated in a CO2 incubator at 37° C. for 45 minutes. The supernatant was removed from the plate, which was then washed several times with RPMI-1640 at 100 μl/well, and then PBS containing 0.1% NP-40 (Calbiochem) was added thereto at 100 μl/well and the fluorescent intensity was measured with and ARVO™SX 1420 multi label counter (Wallac) to determine the number of adhered cells. […]

For the next assay, the system named is Balb/c mice. Put plainly: DSS-induced colitis model. The following applies: male Balb/c mice; 1-3% DSS for 5-7 days; 30 mg/kg orally once a day for 5-7 successive days. The format is in vivo. The source says: Evaluation of Compounds in DSS-Induced Colitis Model
A 1-3% solution of dextran sulfate sodium (hereinafter abbreviated as DSS; ICN) in purified water (Otsuka Pharmaceutical) was fed freely to 6- to 7-week-old male Balb/c mice (Charles River Japan) for 5-7 days to induce colitis. Disease Activity Index (hereinafter abbreviated as DAI) scored based on fecal hardness, blood content in feces and body weight change, the number of neutrophils infiltrating the colon and the length of the colon were used as indexes to evaluate compounds. Each compound was suspended or dissolved in an aqueous solution containing 0.5% methyl cellulose (Wako), and orally administered at 30 mg/kg once a day, for 5-7 successive days.

Counter-ions that a name gives are not always drawn.

For the compound `CCCCN1CCN(c2ccc(N3CCOCC3)cc2C2=CCC(C(C)(C)C)CC2)CC1.Cl` (racemic) [Example 18, 4-[3-(4-t-Butylcyclohex-1-enyl)-4-(4-butylpiperazin-1-yl)phenyl]morpholine hydrochloride], the IC50 is 2.6 µM in the assay on Jurkat cells and 12.1 µM in assay [1]. Further, the “improvement in comparison with the DSS control group (DAI, number of neutrophils infiltrating the colon, length of the colon)” value (shortened to “improvement in comparison”) with Balb/c mice is given as “particularly good improvement”.

Turning to `COC1CCN(c2ccc(N3CCN(CC4CC4)CC3)c(C3=CCC(C(C)(C)C)CC3)c2)CC1.Cl` (racemic) [Example 20, 1-[2-(4-t-Butylcyclohex-1-enyl)-4-(4-methoxypiperidin-1-yl)phenyl]-4-cyclopropylmethylpiperazine hydrochloride], the figures for the IC50 (in the assay with Jurkat cells; in assay [1]) were 7.7 µM and 6.1 µM, respectively. For the same compound, the “improvement in comparison” value with Balb/c mice is on record as “particularly good improvement”.

As for `CCCCCN1CCN(c2cc(OC)ccc2C2CCC(C)(C)CC2)CC1.Cl` [Example 1, 1-[2-(4,4-Dimethylcyclohexyl)-5-methoxyphenyl]-4-pentylpiperazine hydrochloride], the IC50 in the assay on Jurkat cells amounted to 4.5 µM; in assay [1], 9.1 µM. For the same compound, the “improvement in comparison” value with Balb/c mice was “particularly good improvement”.

Regarding `CCC(=O)CN1CCN(c2ccccc2C2CCC(C)(C)CC2)CC1.Cl` [Example 17, 1-{4-[2-(4,4-Dimethylcyclohexyl)phenyl]piperazin-1-yl}butan-2-one hydrochloride], the IC50 worked out at 6.1 µM in the assay with Jurkat cells and 17.9 µM in assay [1]. Besides, in the assay with Balb/c mice, the “improvement in comparison” value is “particularly good improvement”.

As for `CC1(C)C=C(c2ccccc2N2CCN(CC3CCOCC3)CC2)CC(C)(C)C1.Cl` [Example 22, 1-(Tetrahydropyran-4-ylmethyl)-4-[2-(3,3,5,5-tetramethylcyclohex-1-enyl)phenyl]piperazine hydrochloride], the figures for the IC50 (in the assay with Jurkat cells; in assay [1]) were 2.2 µM and 18.1 µM, respectively. Moreover, the “improvement in comparison” value with Balb/c mice was “particularly good improvement”.

Consider `CCCN1CCN(c2ccc(N3CCOCC3)cc2C2=CC(C)(C)CC(C)(C)C2)CC1.Cl` [Example 28, 4-[4-(4-Propylpiperazin-1-yl)-3-(3,3,5,5-tetramethylcyclohex-1-enyl)phenyl]morpholine hydrochloride], for which the IC50 was found to be 3.1 µM in the assay with Jurkat cells and 8.5 µM in assay [1]. Besides, in the assay with Balb/c mice, the “improvement in comparison” value is “particularly good improvement”.

Take `CCC(=O)CN1CCN(c2ccc(N3CCOCC3)cc2C2=CCC(CC)(CC)CC2)CC1.Cl` [Example 30, 1-{4-[2-(4,4-Diethylcyclohex-1-enyl)-4-morpholin-4-ylphenyl]piperazin-1-yl}butan-2-one hydrochloride]: the half-maximal inhibitory concentration (IC50) turned out to be 5.5 µM in the assay on Jurkat cells and 16.9 µM in assay [1]. The “improvement in comparison” value with Balb/c mice is recorded as “particularly good improvement”.

On to `CC(C)CN1CCN(c2ccccc2C2=CCC3(CC2)CC3)CC1.Cl` [Example 34, 1-Isobutyl-4-(2-spiro[2.5]oct-5-en-6-ylphenyl)piperazine hydrochloride], for which the “improvement in comparison” value with Balb/c mice is “particularly good improvement”.

Take `CCCCN1CCN(c2ccccc2/C2=C/CCCCCC2)CC1` [Example 47, 1-Butyl-4-(2-cyclooct-1-enylphenyl)piperazine hydrochloride]: the IC50 worked out at 5 µM with Jurkat cells (Homo sapiens, Jurkat) and 11.8 µM in assay [1] (HUVEC).

Turning to `COCCN1CCN(c2ccc(N3CCC(OC)CC3)cc2C2=CCC3(CCCCC3)CC2)CC1` [Example 48, 1-(2-Methoxyethyl)-4-[4-(4-methoxypiperidin-1-yl)-2-spiro[5.5]undec-2-en-3-ylphenyl]piperazine hydrochloride], the IC50 in the assay on Jurkat cells is 7.9 µM; in assay [1], 4.9 µM.

On to `CC1(C)CCC(c2ccccc2N2CCN(Cc3ccoc3)CC2)CC1` [Example 69, 1-[2-(4,4-Dimethylcyclohexyl)phenyl]-4-furan-3-ylmethylpiperazine hydrochloride], for which the IC50 with Jurkat cells worked out at 3.6 µM; in assay [1], 9.4 µM.

`COc1ccc(N2CCN(CC3CCOCC3)CC2)c(C2CC(C)(C)CC(C)(C)C2)c1` [Example 85, 1-[4-Methoxy-2-(3,3,5,5-tetramethylcyclohexyl)phenyl]-4-(tetrahydropyran-4-ylmethyl)piperazine hydrochloride]: the values for the IC50 (in the assay with Jurkat cells; in assay [1]) were 6.4 µM and 16.4 µM, respectively.

Regarding `CCCCN1CCC(c2ccccc2C2CC(C)(C)CC(C)(C)C2)CC1` [Example 103, 1-Butyl-4-[2-(3,3,5,5-tetramethylcyclohexyl)phenyl]piperidine hydrochloride], the IC50 in the assay on Jurkat cells came to 4.5 µM; in assay [1], 19.3 µM.

With `CC1(C)CC(c2ccccc2N2CCN(CC3CC3)CC2)CC(C)(C)C1` [Example 117, 1-Cyclopropylmethyl-4-[2-(3,3,5,5-tetramethylcyclohexyl)phenyl]piperazine methanesulfonate], the IC50 stood at 4.7 µM in the assay with Jurkat cells and 7.1 µM in assay [1].

As a reminder, the IC50 is the point on the concentration scale where inhibition reaches its midpoint. Low readings indicate higher potency, high ones lower potency.

Values taken from patent publication US20060276465A1, “1,2-di(cyclic) substituted benzene compounds” (Eisai R&D Management Co., Ltd., priority 2003, published 2006).
